# ChEMBL document CHEMBL1151757, “Synthesis, radiosynthesis, and biological evaluation of fluorine-18-labeled 2beta-carbo(fluoroalkoxy)-3beta-(3'-((Z)-2-haloethenyl)phenyl)nortropanes: candidate radioligands for in vivo imaging of the serotonin transporter with positron emission tomography” (J Med Chem, 2008)
# Legend:
# Thalamus [1] = assay: Drug uptake in anesthetized cynomolgus monkey brain thalamus after 27.5 mins postinjection; type: ADME, organism-based, Macaca fascicularis; design: unit not given here; settings: in vivo
# Pons [2] = assay: Drug uptake in anesthetized cynomolgus monkey brain pons after 35 mins postinjection; type: ADME, organism-based, Macaca fascicularis; settings: in vivo
# [3] = Ratio of drug uptake in medulla to cerebellum in anesthetized cynomolgus monkey after 1.5 mins postinjection; type: ADME, organism-based, Macaca fascicularis; settings: in vivo, 0.025 h
# [4] = Drug uptake in anesthetized cynomolgus monkey brain occipital lobe after 27.5 mins postinjection; type: ADME, organism-based, Macaca fascicularis; settings: in vivo
# [5] = Ratio of drug uptake in medulla to cerebellum in anesthetized cynomolgus monkey after 165 mins postinjection; type: ADME, organism-based, Macaca fascicularis; settings: in vivo, 2.75 h
# Caudate [6] = assay: Drug uptake in anesthetized cynomolgus monkey brain caudate after 105 mins postinjection; type: ADME, organism-based, Macaca fascicularis, Caudate nucleus; settings: in vivo, 1.75 h
# [7] = Drug uptake in anesthetized cynomolgus monkey brain occipital lobe after 65 mins postinjection; type: ADME, organism-based, Macaca fascicularis; settings: in vivo
# Thalamus [8] = assay: Drug uptake in anesthetized cynomolgus monkey brain thalamus after 85 mins postinjection; type: ADME, organism-based, Macaca fascicularis; design: unit not given here; settings: in vivo
# Medulla [9] = assay: Drug uptake in anesthetized cynomolgus monkey brain medulla after 125 mins postinjection; type: ADME, organism-based, Macaca fascicularis; settings: in vivo
# Pons [10] = assay: Drug uptake in anesthetized cynomolgus monkey brain pons after 18.5 mins postinjection; type: ADME, organism-based, Macaca fascicularis; settings: in vivo
# Thalamus [11] = assay: Drug uptake in anesthetized cynomolgus monkey brain thalamus after 55 mins postinjection; type: ADME, organism-based, Macaca fascicularis; design: unit not given here; settings: in vivo
# [12] = Ratio of drug uptake in midbrain to cerebellum in anesthetized cynomolgus monkey after 215 mins postinjection; type: ADME, organism-based, Macaca fascicularis; settings: in vivo
# [13] = Ratio of drug uptake in occipital lobe to cerebellum in anesthetized cynomolgus monkey after 235 mins postinjection; type: ADME, organism-based, Macaca fascicularis; settings: in vivo
# [14] = Ratio of drug uptake in occipital lobe to cerebellum in anesthetized cynomolgus monkey after 4.5 mins postinjection; type: ADME, organism-based, Macaca fascicularis; settings: in vivo, 0.075 h
# Putamen [15] = assay: Drug uptake in anesthetized cynomolgus monkey brain putamen after 27.5 mins postinjection; type: ADME, organism-based, Macaca fascicularis; design: unit not given here; settings: in vivo
# Pons [16] = assay: Drug uptake in anesthetized cynomolgus monkey brain pons after 215 mins postinjection; type: ADME, organism-based, Macaca fascicularis; settings: in vivo
# Thalamus [17] = assay: Drug uptake in anesthetized cynomolgus monkey brain thalamus after 155 mins postinjection; type: ADME, organism-based, Macaca fascicularis; design: unit not given here; settings: in vivo
# [18] = Ratio of drug uptake in pons to cerebellum in anesthetized cynomolgus monkey after 1.5 mins postinjection; type: ADME, organism-based, Macaca fascicularis; settings: in vivo, 0.025 h
# Thalamus [19] = assay: Drug uptake in anesthetized cynomolgus monkey brain thalamus after 145 mins postinjection; type: ADME, organism-based, Macaca fascicularis; design: unit not given here; settings: in vivo
# Medulla [20] = assay: Drug uptake in anesthetized cynomolgus monkey brain medulla after 6.5 mins postinjection; type: ADME, organism-based, Macaca fascicularis; settings: in vivo
# Medulla [21] = assay: Drug uptake in anesthetized cynomolgus monkey brain medulla after 195 mins postinjection; type: ADME, organism-based, Macaca fascicularis; settings: in vivo, 3.25 h
# [22] = Ratio of drug uptake in caudate to cerebellum in anesthetized cynomolgus monkey after 65 mins postinjection; type: ADME, organism-based, Macaca fascicularis; settings: in vivo
# [23] = Ratio of drug uptake in midbrain to cerebellum in anesthetized cynomolgus monkey after 2.5 mins postinjection; type: ADME, organism-based, Macaca fascicularis; settings: in vivo
# [24] = Ratio of drug uptake in thalamus to cerebellum in anesthetized cynomolgus monkey after 9.5 mins postinjection; type: ADME, organism-based, Macaca fascicularis; settings: in vivo
# Medulla [25] = assay: Drug uptake in anesthetized cynomolgus monkey brain medulla after 205 mins postinjection; type: ADME, organism-based, Macaca fascicularis; settings: in vivo
# Caudate [26] = assay: Drug uptake in anesthetized cynomolgus monkey brain caudate after 215 mins postinjection; type: ADME, organism-based, Macaca fascicularis, Caudate nucleus; settings: in vivo
# Putamen [27] = assay: Drug uptake in anesthetized cynomolgus monkey brain putamen after 6.5 mins postinjection; type: ADME, organism-based, Macaca fascicularis; design: unit not given here; settings: in vivo
# Caudate [28] = assay: Drug uptake in anesthetized cynomolgus monkey brain caudate after 235 mins postinjection; type: ADME, organism-based, Macaca fascicularis, Caudate nucleus; settings: in vivo
# Pons [29] = assay: Drug uptake in anesthetized cynomolgus monkey brain pons after 115 mins postinjection; type: ADME, organism-based, Macaca fascicularis; settings: in vivo
# Pons [30] = assay: Drug uptake in anesthetized cynomolgus monkey brain pons after 235 mins postinjection; type: ADME, organism-based, Macaca fascicularis; settings: in vivo
# [31] = Drug uptake in anesthetized cynomolgus monkey brain frontal lobe after 235 mins postinjection; type: ADME, organism-based, Macaca fascicularis; settings: in vivo
# [32] = Drug uptake in anesthetized cynomolgus monkey brain frontal lobe after 3.5 mins postinjection; type: ADME, organism-based, Macaca fascicularis; settings: in vivo
# Putamen [33] = assay: Drug uptake in anesthetized cynomolgus monkey brain putamen after 195 mins postinjection; type: ADME, organism-based, Macaca fascicularis; settings: in vivo, 3.25 h
# [34] = Drug uptake in anesthetized cynomolgus monkey brain occipital lobe after 75 mins postinjection; type: ADME, organism-based, Macaca fascicularis; settings: in vivo, 1.25 h
# [35] = Drug uptake in anesthetized cynomolgus monkey brain cerebellum after 215 mins postinjection; type: ADME, organism-based, Macaca fascicularis; settings: in vivo
# [36] = Drug uptake in anesthetized cynomolgus monkey brain occipital lobe after 135 mins postinjection; type: ADME, organism-based, Macaca fascicularis; settings: in vivo, 2.25 h
# [37] = Ratio of drug uptake in occipital lobe to cerebellum in anesthetized cynomolgus monkey after 18.5 mins postinjection; type: ADME, organism-based, Macaca fascicularis; settings: in vivo
# [38] = Drug uptake in anesthetized cynomolgus monkey brain cerebellum after 4.5 mins postinjection; type: ADME, organism-based, Macaca fascicularis; settings: in vivo, 0.075 h
# [39] = Drug uptake in anesthetized cynomolgus monkey brain occipital lobe after 18.5 mins postinjection; type: ADME, organism-based, Macaca fascicularis; settings: in vivo
# Medulla [40] = assay: Drug uptake in anesthetized cynomolgus monkey brain medulla after 75 mins postinjection; type: ADME, organism-based, Macaca fascicularis; settings: in vivo, 1.25 h
# Medulla [41] = assay: Drug uptake in anesthetized cynomolgus monkey brain medulla after 45 mins postinjection; type: ADME, organism-based, Macaca fascicularis; settings: in vivo, 0.75 h
# [42] = Drug uptake in anesthetized cynomolgus monkey brain occipital lobe after 205 mins postinjection; type: ADME, organism-based, Macaca fascicularis; settings: in vivo
# Medulla [43] = assay: Drug uptake in anesthetized cynomolgus monkey brain medulla after 105 mins postinjection; type: ADME, organism-based, Macaca fascicularis; settings: in vivo, 1.75 h
# [44] = Ratio of drug uptake in putamen to cerebellum in anesthetized cynomolgus monkey after 6.5 mins postinjection; type: ADME, organism-based, Macaca fascicularis; settings: in vivo
# Midbrain [45] = assay: Drug uptake in anesthetized cynomolgus monkey brain midbrain after 235 mins postinjection; type: ADME, organism-based, Macaca fascicularis; settings: in vivo
# [46] = Ratio of drug uptake in putamen to cerebellum in anesthetized cynomolgus monkey after 65 mins postinjection; type: ADME, organism-based, Macaca fascicularis; settings: in vivo
# [47] = Drug uptake in anesthetized cynomolgus monkey brain frontal lobe after 6.5 mins postinjection; type: ADME, organism-based, Macaca fascicularis; settings: in vivo
# Medulla [48] = assay: Drug uptake in anesthetized cynomolgus monkey brain medulla after 85 mins postinjection; type: ADME, organism-based, Macaca fascicularis; settings: in vivo
# Pons [49] = assay: Drug uptake in anesthetized cynomolgus monkey brain pons after 225 mins postinjection; type: ADME, organism-based, Macaca fascicularis; settings: in vivo, 3.75 h
# [50] = Drug uptake in anesthetized cynomolgus monkey brain occipital lobe after 95 mins postinjection; type: ADME, organism-based, Macaca fascicularis; settings: in vivo
# Midbrain [51] = assay: Drug uptake in anesthetized cynomolgus monkey brain midbrain after 85 mins postinjection; type: ADME, organism-based, Macaca fascicularis; design: unit not given here; settings: in vivo
# [52] = Drug uptake in anesthetized cynomolgus monkey brain occipital lobe after 175 mins postinjection; type: ADME, organism-based, Macaca fascicularis; settings: in vivo
# [53] = Ratio of drug uptake in caudate to cerebellum in anesthetized cynomolgus monkey after 135 mins postinjection; type: ADME, organism-based, Macaca fascicularis; settings: in vivo, 2.25 h
# Putamen [54] = assay: Drug uptake in anesthetized cynomolgus monkey brain putamen after 55 mins postinjection; type: ADME, organism-based, Macaca fascicularis; design: unit not given here; settings: in vivo
# Thalamus [55] = assay: Drug uptake in anesthetized cynomolgus monkey brain thalamus after 115 mins postinjection; type: ADME, organism-based, Macaca fascicularis; design: unit not given here; settings: in vivo
# [56] = Ratio of drug uptake in medulla to cerebellum in anesthetized cynomolgus monkey after 65 mins postinjection; type: ADME, organism-based, Macaca fascicularis; settings: in vivo
# [57] = Drug uptake in anesthetized cynomolgus monkey brain occipital lobe after 4.5 mins postinjection; type: ADME, organism-based, Macaca fascicularis; settings: in vivo, 0.075 h
# [58] = Drug uptake in anesthetized cynomolgus monkey brain frontal lobe after 9.5 mins postinjection; type: ADME, organism-based, Macaca fascicularis; settings: in vivo
# [59] = Drug uptake in anesthetized cynomolgus monkey brain occipital lobe after 105 mins postinjection; type: ADME, organism-based, Macaca fascicularis; settings: in vivo, 1.75 h
# [60] = Ratio of drug uptake in caudate to cerebellum in anesthetized cynomolgus monkey after 225 mins postinjection; type: ADME, organism-based, Macaca fascicularis; settings: in vivo, 3.75 h
# Medulla [61] = assay: Drug uptake in anesthetized cynomolgus monkey brain medulla after 55 mins postinjection; type: ADME, organism-based, Macaca fascicularis; settings: in vivo
# [62] = Drug uptake in anesthetized cynomolgus monkey brain frontal lobe after 115 mins postinjection; type: ADME, organism-based, Macaca fascicularis; settings: in vivo
# Medulla [63] = assay: Drug uptake in anesthetized cynomolgus monkey brain medulla after 15.5 mins postinjection; type: ADME, organism-based, Macaca fascicularis; settings: in vivo
# Pons [64] = assay: Drug uptake in anesthetized cynomolgus monkey brain pons after 195 mins postinjection; type: ADME, organism-based, Macaca fascicularis; settings: in vivo, 3.25 h
# Medulla [65] = assay: Drug uptake in anesthetized cynomolgus monkey brain medulla after 65 mins postinjection; type: ADME, organism-based, Macaca fascicularis; settings: in vivo
# [66] = Ratio of drug uptake in pons to cerebellum in anesthetized cynomolgus monkey after 225 mins postinjection; type: ADME, organism-based, Macaca fascicularis; settings: in vivo, 3.75 h
# Thalamus [67] = assay: Drug uptake in anesthetized cynomolgus monkey brain thalamus after 45 mins postinjection; type: ADME, organism-based, Macaca fascicularis; design: unit not given here; settings: in vivo, 0.75 h
# [68] = Drug uptake in anesthetized cynomolgus monkey brain cerebellum after 195 mins postinjection; type: ADME, organism-based, Macaca fascicularis; settings: in vivo, 3.25 h
smiles,measurement,setting,value
O=C(OCCC[18F])C1C2CCC(CC1c1cccc(/C=C\I)c1)N2 (stereo not drawn),Drug uptake,Thalamus [1],4.66
same,Drug uptake,Pons [2],4.25
same,Ratio,[3],1.3
same,Drug uptake,[4],4
same,Ratio,[5],1.9
same,Drug uptake,Caudate [6],3.7
same,Drug uptake,[7],3.86
same,Drug uptake,Thalamus [8],4.59
same,Drug uptake,Medulla [9],4.54
same,Drug uptake,Pons [10],4.2
same,Drug uptake,Thalamus [11],4.89
same,Ratio,[12],1.8
same,Ratio,[13],1
same,Ratio,[14],0.8
same,Drug uptake,Putamen [15],4.9
same,Drug uptake,Pons [16],3.11
same,Drug uptake,Thalamus [17],3.73
same,Ratio,[18],0.8
same,Drug uptake,Thalamus [19],3.93
same,Drug uptake,Medulla [20],3.75
same,Drug uptake,Medulla [21],3.78
same,Ratio,[22],1
same,Ratio,[23],0.9
same,Ratio,[24],0.8
same,Drug uptake,Medulla [25],3.76
same,Drug uptake,Caudate [26],2.54
same,Drug uptake,Putamen [27],3.28
same,Drug uptake,Caudate [28],2.41
same,Drug uptake,Pons [29],3.98
same,Drug uptake,Pons [30],3.31
same,Drug uptake,[31],1.78
same,Drug uptake,[32],0.83
same,Drug uptake,Putamen [33],3.39
same,Drug uptake,[34],3.68
same,Drug uptake,[35],2.06
same,Drug uptake,[36],2.82
same,Ratio,[37],0.8
same,Drug uptake,[38],2.5
same,Drug uptake,[39],3.85
same,Drug uptake,Medulla [40],5.16
same,Drug uptake,Medulla [41],5.13
same,Drug uptake,[42],2.3
same,Drug uptake,Medulla [43],4.34
same,Ratio,[44],0.8
same,Drug uptake,Midbrain [45],3.57
same,Ratio,[46],1.2
same,Drug uptake,[47],1.88
same,Drug uptake,Medulla [48],4.79
same,Drug uptake,Pons [49],3.11
same,Drug uptake,[50],3.35
same,Drug uptake,Midbrain [51],4.92
same,Drug uptake,[52],2.55
same,Ratio,[53],1.3
same,Drug uptake,Putamen [54],5.03
same,Drug uptake,Thalamus [55],4.24
same,Ratio,[56],1.2
same,Drug uptake,[57],2.06
same,Drug uptake,[58],2.11
same,Drug uptake,[59],3.18
same,Ratio,[60],1.3
same,Drug uptake,Medulla [61],5.06
same,Drug uptake,[62],2.56
same,Drug uptake,Medulla [63],4.36
same,Drug uptake,Pons [64],3.26
same,Drug uptake,Medulla [65],4.96
same,Ratio,[66],1.7
same,Drug uptake,Thalamus [67],4.84
same,Drug uptake,[68],2.16
